Entries after “also recorded” stand apart in the source; their conditions may differ.
Experiments:
[1] = tested on: T follicular helper (Tfh) cells; assay: In vivo immunosuppression, T follicular helper cells (Example 3); conditions: 8 days
Procedure: The in vivo immunosuppressive effect of JH-FK-08 was assessed by studying T follicular helper (Tfh) cell production in mice. Tfh cells play a role in protection against and response to fungal infections (see, Wong G K, et al., 1998. J Antibiot 51:487-491; Cruz M C, et al., 1999. Mol Cell Biol 19:4101-4112). For this study, immunocompetent C57BL/6 mice received 8 days of twice-daily dosing of vehicle, FK506 (2.5 mg/kg), or JH-FK-08 (20 or 40 mg/kg). Twenty-four hours after the first dose, mice were immunized with NP-OVA to induce an immune response. Cells were analyzed 7 days post immunization, and cell types were analyzed by flow cytometry (FIG. 15B).
Cell surface staining of single cell suspensions was performed in staining buffer (PBS supplemented with 2 mM EDTA and 0.5% BSA). Anti-FcγR (93; Biolegend) was treated to block the Fe receptor before surface staining of primary cells isolated from lymph nodes of NP-OVA-immunized mice. Cells were stained with fixable viability dye (eBioscience) before surface staining to exclude dead cells from analysis. For the detection of intracellular cytokines, cells were additionally incubated with phorbol 12-myristate 13-acetate and ionomycin in the presence of GolgiStop (BD Biosciences) during the final 4 h of incubation. For intracellular staining, cells were fixed and permeabilized with Fixation/Permeabilization Buffer (eBioscience). Flow cytometric analysis was performed utilizing BD FACSCantoII or BD LSRFortessaX20 (BD Biosciences) and FlowJo software (BD Biosciences).
Groups of five female C57BL/6 mice were treated twice daily for 8 days with vehicle, FK506 (2.5 mg/kg), JH-FK-08 (20 mg/kg), or JH-FK-08 (40 mg/kg) via i.p. injection. Twenty-four hours after the first dose, animals were immunized with NP-OVA (100 μg) in alum via subcutaneous injection. Seven days post immunization, mice were sacrificed, and draining lymph nodes were harvested for the analysis of Tfh cells and GC B cells by flow cytometry.

C. neoformans strain H99 = assay: Murine cryptococcal infection, spleen fungal burden (Example 3); type: in vivo, Cryptococcus neoformans in A/J mice; conditions: 14 days; fluconazole 6 mg/kg, JH-FK-08 40 mg/kg, i.p. twice per day
Procedure: In vivo antifungal activity and therapeutic benefit were assayed by investigating the impact of the FK520 analog on organ fungal burden during cryptococcosis. Specifically, the in vivo efficacy of JH-FK-08 on fungal burden was assessed using A/J female mice. Immunodeficient A/J mice were selected in part due to their defect in complement component five and their susceptibility to cryptococcal infection. Treatment groups included vehicle of 10% Kolliphor: ethanol (1:1) in phosphate-buffered saline (PBS), 6 mg/kg fluconazole, 40 mg/kg JH-FK-08, or the fluconazole and JH-FK-08 combination, all given via intraperitoneal (i.p.) injection twice per day beginning at 4 hours post infection. […] Mice were intranasally infected with C. neoformans strain H99, and fungal burden in the lung, spleen, and brain was assessed after 14 days of treatment.
C. neoformans inoculum was prepared by growing a 5-mL overnight YPD culture spinning in a tissue culture roller drum at 30° C. Cells were pelleted by centrifugation and washed in sterile PBS three times. Cell density was determined by hemocytometer, and cells were diluted to 2×10^6 cells/mL. Mice (10 to 20 g) were infected with 10^5 cells of C. neoformans H99. […] Following inhalation of the inoculum, animals were monitored for post anesthesia recovery. […] Fungal burden was assessed 24 h after the final dose. […]

Compound | production of Tfh cells ([1]; FK506 2.5 mg/kg i.p. twice daily, 2.5 mg/kg) | spleen fungal burden (C. neoformans strain H99) | production of Tfh cells ([1]; JH-FK-08 20 mg/kg i.p. twice daily) | production of Tfh cells ([1]; JH-FK-08 40 mg/kg i.p. twice daily)
C=CCC1C=C(C)CC(C)CC(OC)C2OC(O)(C(=O)C(=O)N3CCCCC3C(=O)OC(C(C)=CC3CCC(O)C(OC)C3)C(C)C(O)CC1=O)C(C)CC2OC (stereo not shown) [FK506, reference compound] | significantly reduced; also recorded: significantly inhibits Tfh cell production at 1/16 of the dose of JH-FK-08 |  |  | 
CC[C@@H]1/C=C(\C)C[C@H](C)C[C@H](OC)[C@H]2O[C@@](O)(C(=O)C(=O)N3CCCC[C@H]3C(=O)O[C@H](/C(C)=C/C3CC[C@@H](O)[C@H](OC)C3)[C@H](C)[C@@H](O)C/C1=N/NC(=O)OC)[C@H](C)C[C@@H]2OC (stereo partly shown) [JH-FK-08] |  | no detectable fungal burden | no significant effect on the percent of Tfh cells produced compared to vehicle | production of Tfh cells was reduced
